Assay results: ChEMBL document CHEMBL1136153, “2-oxoglutarate analogue inhibitors of HIF prolyl hydroxylase” (Bioorg Med Chem Lett, 2003)

Assay: Inhibitory concentration against oxoglutarate oxygenase was determined

O=C(O)CCC(S)C(=O)O (stereo unspecified)
IC50: 120 µM
